{"source": "paper PMC10817170", "about": "“Effect of an NHE3 inhibitor in combination with an NPT2b inhibitor on gastrointestinal phosphate absorption in Rodent models” (PLOS ONE, 2024)", "key": {"NHE3 [1]": {"system": "T1, NHE3", "T1 construct": "from tissue; host or cells: intestine of living SD rats", "assay": "Sodium and phosphate excretion in urine after oral NaH2PO4 bolus in rats", "format": "in vivo", "details": "4 h urine; for Phosphorus-to-Creatinine / Sodium-to-Creatinine / Total Urinary Phosphorus / Total Urinary Sodium / Urinary-to-Dietary Phosphate / Urinary-to-Dietary Sodium / Urine Volume: NaH2PO4 bolus", "experimental": "To assess sodium and phosphate absorption in rats, we took advantage of the increase in urinary sodium and phosphate excretion following an oral bolus of sodium phosphate. Thus, an LY3304000 dependent decrease in urinary sodium and phosphate excretion following an oral bolus dose of sodium phosphate is an indirect measurement of the ability of LY3304000 to inhibit sodium and phosphate absorption in intestine. A dosing solution of 3 mg/kg LY3304000 for a 10 mL/kg dose volume was formulated in 1% HEC. The subsequent dosing solutions of 1, 0.3, 0.1, 0.03, 0.01, 0.003, and 0.001 mg/kg LY3304000 were prepared by serial dilutions with 1% HEC. An NaH2PO4 dosing solution at 690 mg/kg with a 20 mL/kg dosing volume was made in sterile water. Male SD rats were fasted for 4 hours with access to water and then orally dosed at 10 mL/kg with 1% HEC vehicle or varying dose of LY3304000 at 0.001, 0.003, 0.01, 0.03, 0.1, 0.3, 1, and 3 mg/kg. In this and subsequent studies where phosphate absorption is measured, a 4 hour fast was used which is less disruptive to the animal’s normal physiology than the 12 hours fast used to measure acute phosphate uptake into plasma. Fifteen minutes later, rats were dosed with either sterile water or NaH2PO4 solution, and then immediately transferred to metabolic cages. Urine samples were collected from the metabolic cages at 4 hours post sterile water or NaH2PO4 dose. The net urine volume was recorded. Urinary sodium, creatinine, and phosphorus (as a measure of phosphate) were determined using a clinical biochemistry analyzer. The urinary sodium-to-creatinine and phosphorus-to-creatinine ratios were calculated and compared between vehicle and LY3304000 treated groups. The ratios of urinary-to-dietary phosphate (measured as phosphorus) and urinary-to-dietary sodium in urine were compared between vehicle and LY3304000 treated groups."}, "[2]": {"assay": "Pharmacokinetics study after oral dosing", "format": "in vivo, rats", "experimental": "Following oral dosing of the free base from of LY3304000 in a vehicle of 1% Hydroxyethylcellulose, 0.25% Polysorbate 80, and 0.05% Antifoam in purified water, the level of LY3304000 in rat blood 2.5-hour post dose was below the limit of quantification of LY330400 (0.815 nM with LC/MS method). Further characterization of the pharmacokinetic properties of LY3304000 was hampered by an inability to identify an appropriate vehicle for IV dosing."}, "NHE3 [3]": {"system": "T2, NHE3", "T2 construct": "from tissue; host or cells: intestine of living C57Bl/6 mice", "assay": "Sodium excretion in urine after oral NaH2PO4 bolus in mice", "format": "in vivo", "details": "sodium bolus plus 3 mg/kg po, urine 4 h, mean ± SEM", "experimental": "The effect of LY3304000 on sodium and phosphate excretion in urine was also assessed in mice. A dosing solution of 3 mg/kg LY3304000 for a 10 mL/kg dose volume was formulated in 1% HEC. An NaH2PO4 dosing solution at a 690 mg/kg with a […] dosing volume was made in sterile water. Male C57Bl/6 mice were fasted for 4 hours with access to water and then orally dosed at 10 mL/kg with 1% HEC vehicle or 3 mg/kg LY3304000. Fifteen minutes later, mice were orally dosed with either sterile water or NaH2PO4 solution, and then immediately transferred to a mouse holder on a 96-well plate for spot urine collection. Urine samples were collected for 4 hours post sterile water or NaH2PO4 dose. Urinary sodium, creatinine, and phosphorus (as a measure of phosphate) were determined using a clinical biochemistry analyzer. The urinary sodium-to-creatinine ratio was calculated and compared between vehicle and LY3304000 treated groups."}}, "note": "Where “and” joins values, the source holds several entries; their conditions need not be identical. Identical values can stand only once.", "data": [{"smiles": "CN1Cc2c(Cl)cc(Cl)cc2[C@H](c2cccc(S(=O)(=O)NCCOCCOCCN/C(=N\\C(N)=O)NCCCCN/C(=N/C(N)=O)NCCOCCOCCNS(=O)(=O)c3cccc([C@@H]4CN(C)Cc5c(Cl)cc(Cl)cc54)c3)c2)C1.Cl.Cl", "note": "[LY3304000, (Z)-[[4-[[(Z)-N’-carbamoyl-N-[2-[2-[2-[[3-[(4S)-6,8-dichloro-2-methyl-3,4-dihydro-1H-isoquinolin-4-yl]phenyl]sulfonylamino]ethoxy]ethoxy]ethyl]carbamimidoyl]amino]butylamino]-[2-[2-[2-[[3-[(4S)-6,8-dichloro-2-methyl-3,4-dihydro-1H-isoquinolin-4-yl]phenyl]sulfonylamino]ethoxy]ethoxy]ethylamino]methylene]urea dihydrochloride]", "values": [{"measurement": "Phosphorus-to-Creatinine", "setting": "NHE3 [1]; 0.001 mg/kg po", "result": 14, "unit": "mg/mg"}, {"measurement": "Sodium-to-Creatinine", "setting": "NHE3 [1]; 0.001 mg/kg po", "result": 10, "unit": "mg/mg"}, {"measurement": "Total Urinary Phosphorus", "setting": "NHE3 [1]; 0.001 mg/kg po", "result": 12501, "unit": "µg"}, {"measurement": "Total Urinary Sodium", "setting": "NHE3 [1]; 0.001 mg/kg po", "result": 9084, "unit": "µg"}, {"measurement": "Urinary-to-Dietary Phosphate", "setting": "NHE3 [1]; 0.001 mg/kg po", "result": 0.337}, {"measurement": "Urinary-to-Dietary Sodium", "setting": "NHE3 [1]; 0.001 mg/kg po", "result": 0.326}, {"measurement": "Urine Volume", "setting": "NHE3 [1]; 0.001 mg/kg po", "result": 4, "unit": "mL"}, {"measurement": "Phosphorus-to-Creatinine", "setting": "NHE3 [1]; 0.003 mg/kg po", "result": 14.1, "unit": "mg/mg"}, {"measurement": "Sodium-to-Creatinine", "setting": "NHE3 [1]; 0.003 mg/kg po", "result": 12.2, "unit": "mg/mg"}, {"measurement": "Total Urinary Phosphorus", "setting": "NHE3 [1]; 0.003 mg/kg po", "result": 12997, "unit": "µg"}, {"measurement": "Total Urinary Sodium", "setting": "NHE3 [1]; 0.003 mg/kg po", "result": 11429, "unit": "µg"}, {"measurement": "Urinary-to-Dietary Phosphate", "setting": "NHE3 [1]; 0.003 mg/kg po", "result": 0.350}, {"measurement": "Urinary-to-Dietary Sodium", "setting": "NHE3 [1]; 0.003 mg/kg po", "result": 0.413}, {"measurement": "Urine Volume", "setting": "NHE3 [1]; 0.003 mg/kg po", "result": 4.6, "unit": "mL"}, {"measurement": "Phosphorus-to-Creatinine", "setting": "NHE3 [1]; 0.01 mg/kg po", "result": 15, "unit": "mg/mg"}, {"measurement": "Sodium-to-Creatinine", "setting": "NHE3 [1]; 0.01 mg/kg po", "result": 9.8, "unit": "mg/mg"}, {"measurement": "Total Urinary Phosphorus", "setting": "NHE3 [1]; 0.01 mg/kg po", "result": 12066, "unit": "µg"}, {"measurement": "Total Urinary Sodium", "setting": "NHE3 [1]; 0.01 mg/kg po", "result": 8104, "unit": "µg"}, {"measurement": "Urinary-to-Dietary Phosphate", "setting": "NHE3 [1]; 0.01 mg/kg po", "result": 0.320}, {"measurement": "Urinary-to-Dietary Sodium", "setting": "NHE3 [1]; 0.01 mg/kg po", "result": 0.290}, {"measurement": "Urine Volume", "setting": "NHE3 [1]; 0.01 mg/kg po", "result": 3.8, "unit": "mL"}, {"measurement": "Phosphorus-to-Creatinine", "setting": "NHE3 [1]; 0.03 mg/kg po", "result": 13, "unit": "mg/mg"}, {"measurement": "Sodium-to-Creatinine", "setting": "NHE3 [1]; 0.03 mg/kg po", "result": 9.8, "unit": "mg/mg"}, {"measurement": "Total Urinary Phosphorus", "setting": "NHE3 [1]; 0.03 mg/kg po", "result": 9961, "unit": "µg"}, {"measurement": "Total Urinary Sodium", "setting": "NHE3 [1]; 0.03 mg/kg po", "result": 7637, "unit": "µg"}, {"measurement": "Urinary-to-Dietary Phosphate", "setting": "NHE3 [1]; 0.03 mg/kg po", "result": 0.268}, {"measurement": "Urinary-to-Dietary Sodium", "setting": "NHE3 [1]; 0.03 mg/kg po", "result": 0.276}, {"measurement": "Urine Volume", "setting": "NHE3 [1]; 0.03 mg/kg po", "result": 2.7, "unit": "mL"}, {"measurement": "Phosphorus-to-Creatinine", "setting": "NHE3 [1]; 0.1 mg/kg po", "result": 12.3, "unit": "mg/mg"}, {"measurement": "Sodium-to-Creatinine", "setting": "NHE3 [1]; 0.1 mg/kg po", "result": 5.3, "unit": "mg/mg"}, {"measurement": "Total Urinary Phosphorus", "setting": "NHE3 [1]; 0.1 mg/kg po", "result": 7247, "unit": "µg"}, {"measurement": "Total Urinary Sodium", "setting": "NHE3 [1]; 0.1 mg/kg po", "result": 2850, "unit": "µg"}, {"measurement": "Urinary-to-Dietary Phosphate", "setting": "NHE3 [1]; 0.1 mg/kg po", "result": 0.197}, {"measurement": "Urinary-to-Dietary Sodium", "setting": "NHE3 [1]; 0.1 mg/kg po", "result": 0.105}, {"measurement": "Urine Volume", "setting": "NHE3 [1]; 0.1 mg/kg po", "result": 1.7, "unit": "mL"}, {"measurement": "Phosphorus-to-Creatinine", "setting": "NHE3 [1]; 0.3 mg/kg po", "result": 12, "unit": "mg/mg"}, {"measurement": "Sodium-to-Creatinine", "setting": "NHE3 [1]; 0.3 mg/kg po", "result": 2.4, "unit": "mg/mg"}, {"measurement": "Total Urinary Phosphorus", "setting": "NHE3 [1]; 0.3 mg/kg po", "result": 6250, "unit": "µg"}, {"measurement": "Total Urinary Sodium", "setting": "NHE3 [1]; 0.3 mg/kg po", "result": 1095, "unit": "µg"}, {"measurement": "Urinary-to-Dietary Phosphate", "setting": "NHE3 [1]; 0.3 mg/kg po", "result": 0.168}, {"measurement": "Urinary-to-Dietary Sodium", "setting": "NHE3 [1]; 0.3 mg/kg po", "result": 0.039}, {"measurement": "Urine Volume", "setting": "NHE3 [1]; 0.3 mg/kg po", "result": 1, "unit": "mL"}, {"measurement": "Phosphorus-to-Creatinine", "setting": "NHE3 [1]; 1 mg/kg po", "result": 11.3, "unit": "mg/mg"}, {"measurement": "Sodium-to-Creatinine", "setting": "NHE3 [1]; 1 mg/kg po", "result": 2.4, "unit": "mg/mg"}, {"measurement": "Total Urinary Phosphorus", "setting": "NHE3 [1]; 1 mg/kg po", "result": 7081, "unit": "µg"}, {"measurement": "Total Urinary Sodium", "setting": "NHE3 [1]; 1 mg/kg po", "result": 1400, "unit": "µg"}, {"measurement": "Urinary-to-Dietary Phosphate", "setting": "NHE3 [1]; 1 mg/kg po", "result": 0.191}, {"measurement": "Urinary-to-Dietary Sodium", "setting": "NHE3 [1]; 1 mg/kg po", "result": 0.051}, {"measurement": "Urine Volume", "setting": "NHE3 [1]; 1 mg/kg po", "result": 1.4, "unit": "mL"}, {"measurement": "Phosphorus-to-Creatinine", "setting": "NHE3 [1]; 3 mg/kg po", "result": 9.5, "unit": "mg/mg"}, {"measurement": "Total Urinary Phosphorus", "setting": "NHE3 [1]; 3 mg/kg po", "result": 5346, "unit": "µg"}, {"measurement": "Total Urinary Sodium", "setting": "NHE3 [1]; 3 mg/kg po", "result": 612, "unit": "µg"}, {"measurement": "Urinary-to-Dietary Phosphate", "setting": "NHE3 [1]; 3 mg/kg po", "result": 0.144}, {"measurement": "Urinary-to-Dietary Sodium", "setting": "NHE3 [1]; 3 mg/kg po", "result": 0.022}, {"measurement": "Urine Volume", "setting": "NHE3 [1]; 3 mg/kg po", "result": 1, "unit": "mL"}, {"measurement": "Sodium-to-Creatinine", "setting": "NHE3 [1]; 3 mg/kg po, 3 mg/kg", "result": "1.0 ± 0.4 mg/mg and 1 mg/mg"}, {"measurement": "ED50, urinary phosphorus excretion", "setting": "NHE3 [1]; urinary-to-dietary phosphorus", "result": 0.041, "unit": "mg/kg"}, {"measurement": "ED50, urinary sodium excretion", "setting": "NHE3 [1]; urinary-to-dietary sodium", "result": 0.058, "unit": "mg/kg"}, {"measurement": "detection in plasma following oral dosing", "setting": "[2]; oral dosing", "result": "could not be detected"}, {"measurement": "concentration at 2.5 h", "setting": "[2]; rat, whole blood, oral, free base, 2.5-hour post dose, below limit of quantification (LC/MS), read-out: level in rat blood", "result": "< 0.815", "unit": "nM"}, {"measurement": "Urinary sodium-to-creatinine ratio", "setting": "NHE3 [3]", "result": "14.6 ± 1.7", "unit": "mg/mg"}]}]}
